Experimental findings from the supplement of paper PMC9549728 are described below.

Test in all cases: IC50 (viability, PrestoBlue) (log10 nM)
What all share (settings): exposure time: 72 h

For test [1], the system named is murine gastric organoid WNT-activated (Apc fl/fl; Tp53 R172H). Here is the method: (§1)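 Murine gastric corpus organoids (normal uninduced; RAS-activated Kras G12D/Tp53 R172H; diffuse Cdh1/Apc loss; WNT-activated Apc loss/Tp53 R172H) were seeded in Matrigel into pre-spotted 384-well plates. The plates held a 196-compound library at 6.7 nM to 25,004 nM (9 doses) and were incubated 72 h. Viability was read by PrestoBlue fluorescence (560/590 nm). IC50 came from non-linear regression (Prism), reported as log10 IC50 in nM, mean of 3 passages x 2 wells.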

The test system of test [2] is murine gastric organoid RAS-activated (Kras G12D; Tp53 R172H). Here is the method:
as §1

Test [3] relates to murine normal gastric organoid. Here is the method: as §1
For test [4], the system named is murine gastric organoid diffuse (Cdh1 fl/fl; Apc fl/fl). How it is done: as §1

Molecules are shown by their SMILES.

On to `CCN1CCN(Cc2ccc(Nc3ncc(F)c(-c4cc(F)c5nc(C)n(C(C)C)c5c4)n3)nc2)CC1`, for which the “IC50 (log10 nM)” value was 2.47 in test [1], 2.88 in test [2], 2.94 in test [3] and 2.7 in test [4].
Take `CC[C@@H]1C(=O)N(C)c2cnc(Nc3ccc(C(=O)N[C@H]4CC[C@H](N5CCN(CC6CC6)CC5)CC4)cc3OC)nc2N1C(C)C` [Volasertib]: the “IC50 (log10 nM)” value turned out to be 2.19 in test [1], 2.09 in test [2], 1.98 in test [3] and 2.29 in test [4].
For `CC1=C(/C=C/C(C)=C/C=C/C(C)=C/C(=O)O)C(C)(C)CCC1` [Retinoic acid], in that order: 3.82, 0.928, over 4.4 and over 4.4.
Turning to `CC(C)C[C@H](NC(=O)CNC(=O)c1cc(Cl)ccc1Cl)B(O)O` [Ixazomib (MLN9708)], the “IC50 (log10 nM)” value in test [1] was determined as 2.6; in test [2], 2.12; in test [3], 2.8; in test [4], 2.51.
With `Nc1nc(=S)c2[nH]cnc2[nH]1` [6-Thioguanine], the “IC50 (log10 nM)” value in test [1] came out at 1.35; in test [2], 3.8; in test [3], 3.73; in test [4], 4.29.
`COc1cc(Nc2ncc(F)c(Nc3ccc4c(n3)N(COP(=O)(O)O)C(=O)C(C)(C)O4)n2)cc(OC)c1OC` [R788 disodium hexahydrate]: the “IC50 (log10 nM)” value is 2.5 in test [1], 3.21 in test [2], 3.46 in test [3] and 2.99 in test [4].
In the case of `CNC(=O)c1ccccc1Sc1ccc2c(/C=C/c3ccccn3)n[nH]c2c1` [Axitinib], the “IC50 (log10 nM)” value in test [1] turned out to be 2.75; in test [2], 3.3; in test [3], 3.98; in test [4], 3.78.
As to `COc1cc(Nc2ncc3c(n2)-c2ccc(Cl)cc2C(c2c(F)cccc2OC)=NC3)ccc1C(=O)O` [Alisertib], the “IC50 (log10 nM)” value in test [1] came out at 3.02; in test [2], 2; in test [3], 2.47; in test [4] it was 2.98.
Turning to `Cc1cc(Nc2ncc(Cl)c(Nc3ccccc3S(=O)(=O)C(C)C)n2)c(OC(C)C)cc1C1CCNCC1` [LDK378], the “IC50 (log10 nM)” value in test [1] worked out at 2.55; in test [2], 3.08; in test [3], 2.84; in test [4], 2.8.
As for `C[C@@H](Oc1cc(-c2cnn(C3CCNCC3)c2)cnc1N)c1c(Cl)ccc(F)c1Cl` [Crizotinib], the “IC50 (log10 nM)” value in test [1] was determined as 2.95; in test [2] it was 2.96; in test [3] it was 3.4; in test [4], 3.22.
Consider `COc1c(OCCCN2CCOCC2)ccc2c1N=C(NC(=O)c1cnc(N)nc1)N1CCN=C21` [Copanlisib], for which the “IC50 (log10 nM)” value in test [1] came out at 1.96; in test [2] it was 2; in test [3], 1.94; in test [4], 2.23.
In the same order, the values of `CNC(=O)[C@@H](NC(=O)[C@H](CC(C)C)[C@H](O)C(=O)NO)C(C)(C)C` [Marimastat] are 4.02, under 0.826, 4.37 and over 4.4.
Take `S=P(N1CC1)(N1CC1)N1CC1` [Thio-TEPA]: the “IC50 (log10 nM)” value in test [1] is 4.16; in test [2], 4.17; in test [3] it was 4.21; in test [4], over 4.4.
Regarding `Cc1c(N)nc([C@H](CC(N)=O)NC[C@H](N)C(N)=O)nc1C(=O)N[C@H](C(=O)N[C@H](C)[C@@H](O)[C@H](C)C(=O)N[C@H](C(=O)NCCc1nc(-c2nc(C(=O)NCCC[S+](C)C)cs2)cs1)[C@@H](C)O)[C@@H](OC1OC(CO)C(O)C(O)C1OC1OC(CO)C(O)C(OC(N)=O)C1O)c1cnc[nH]1` (stereo partly specified) [Bleomycin], the “IC50 (log10 nM)” value in test [1] is over 4.4; in test [2], 3.83; in test [3], 3.85; in test [4], 3.57.
